Key:
MKK4 [1] = biological target: T1, MKK4 (Homo sapiens, UniProt P45985); test: KINOMEscan competition binding assay, MKK4; details: residual percent of control binding (PoC) at 100 nM
T1 construct: S84/D399; host or cells: HEK-293
T1 sequence (P45985 84-399): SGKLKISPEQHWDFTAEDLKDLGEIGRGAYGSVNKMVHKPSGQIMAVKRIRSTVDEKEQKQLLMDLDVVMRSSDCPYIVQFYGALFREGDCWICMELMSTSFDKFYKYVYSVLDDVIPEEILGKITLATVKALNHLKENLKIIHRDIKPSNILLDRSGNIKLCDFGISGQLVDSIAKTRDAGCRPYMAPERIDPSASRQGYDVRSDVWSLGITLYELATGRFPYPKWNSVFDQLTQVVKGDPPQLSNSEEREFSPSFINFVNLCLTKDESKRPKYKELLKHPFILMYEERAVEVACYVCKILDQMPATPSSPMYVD
Procedure, shortened: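 Tested at 100 nM and reported as percent of control binding (PoC). MKK4 was produced in HEK-293 cells and DNA-tagged. Displacement from ligand-coated, blocked beads was read by qPCR of eluted kinase.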

BRaf [2] = biological target: T2, BRaf (Homo sapiens, UniProt P15056); test: KINOMEscan competition binding assay, BRaf; details: ratio PoC (off-target)/PoC (MKK4)
T2 construct: purchased ProQinase GmbH, Freiburg, Germany (33PanQinase Assay Service)
Procedure, shortened: (§1)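 DNA-tagged kinases expressed in HEK-293 cells compete between immobilized ligand on blocked beads and test compound at 100 nM; kinase retained on beads quantified by qPCR of the tag.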

MKK4 [3] = biological target: T3, MKK4 (Homo sapiens, UniProt P45985); test: 33PanQinase enzyme assay, MKK4; assay type: biochemical; details: assay 'IC50'; read-out: Potency MKK4 (IC50)
T3 construct: purchased ProQinase GmbH, Freiburg, Germany (33PanQinase Assay Service)
T3 sequence (P45985 1-399): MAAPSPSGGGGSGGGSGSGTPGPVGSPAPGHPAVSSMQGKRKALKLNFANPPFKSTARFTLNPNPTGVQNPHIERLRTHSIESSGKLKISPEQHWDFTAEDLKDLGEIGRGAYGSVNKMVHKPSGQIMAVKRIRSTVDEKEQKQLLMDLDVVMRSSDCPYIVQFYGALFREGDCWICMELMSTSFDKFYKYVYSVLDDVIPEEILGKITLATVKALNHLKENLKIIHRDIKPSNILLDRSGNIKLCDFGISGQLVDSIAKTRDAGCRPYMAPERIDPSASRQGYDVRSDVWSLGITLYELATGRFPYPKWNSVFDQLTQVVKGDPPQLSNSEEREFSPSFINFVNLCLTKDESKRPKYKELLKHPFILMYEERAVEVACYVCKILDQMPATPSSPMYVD
Procedure, shortened: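 Inhibition measured as 33Pi transfer to substrate after a 60-min, 30 °C reaction, acid-stopped and scintillation-counted.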

BRaf [4] = biological target: T2, BRaf; test: 33PanQinase enzyme assay, BRaf; assay type: biochemical; details: ratio IC50(BRaf)/IC50(MKK4)
Procedure, shortened: (§2)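 Off-target selectivity is the ratio IC50(off-target)/IC50(MKK4), with IC50 values from least-squares fitting and single-point data as % residual activity. Reactions of enzyme/substrate mix, ATP and compound ran 60 min at 30° C before H3PO4 stop; ^33P incorporation read on a scintillation counter.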

MKK7 [5] = biological target: T4, MKK7 (Homo sapiens, UniProt O14733); test: KINOMEscan competition binding assay, MKK7; design: M1/R419; host or cells: HEK-293; details: ratio PoC (off-target)/PoC (MKK4)
T4 sequence (O14733 1-419): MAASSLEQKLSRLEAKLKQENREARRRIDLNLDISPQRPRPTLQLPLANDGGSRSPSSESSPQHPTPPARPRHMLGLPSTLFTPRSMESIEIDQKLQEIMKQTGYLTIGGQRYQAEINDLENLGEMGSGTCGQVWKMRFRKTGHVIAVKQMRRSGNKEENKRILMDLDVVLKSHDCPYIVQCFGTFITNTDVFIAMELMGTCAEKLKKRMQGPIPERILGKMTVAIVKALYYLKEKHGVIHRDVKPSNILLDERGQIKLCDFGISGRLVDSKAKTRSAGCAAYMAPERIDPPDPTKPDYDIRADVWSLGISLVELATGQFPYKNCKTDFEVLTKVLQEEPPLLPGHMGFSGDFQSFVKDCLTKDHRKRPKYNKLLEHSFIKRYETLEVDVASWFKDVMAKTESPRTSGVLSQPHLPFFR
Procedure, shortened: as §1

JNK1 [6] = biological target: T5, JNK1 (Homo sapiens, UniProt P45983); test: KINOMEscan competition binding assay, JNK1; design: M1/Q384; host or cells: HEK-293; details: ratio PoC (off-target)/PoC (MKK4)
Procedure, shortened: as §1
Target sequence in this assay (P45983 1-384 isoform P45983-2): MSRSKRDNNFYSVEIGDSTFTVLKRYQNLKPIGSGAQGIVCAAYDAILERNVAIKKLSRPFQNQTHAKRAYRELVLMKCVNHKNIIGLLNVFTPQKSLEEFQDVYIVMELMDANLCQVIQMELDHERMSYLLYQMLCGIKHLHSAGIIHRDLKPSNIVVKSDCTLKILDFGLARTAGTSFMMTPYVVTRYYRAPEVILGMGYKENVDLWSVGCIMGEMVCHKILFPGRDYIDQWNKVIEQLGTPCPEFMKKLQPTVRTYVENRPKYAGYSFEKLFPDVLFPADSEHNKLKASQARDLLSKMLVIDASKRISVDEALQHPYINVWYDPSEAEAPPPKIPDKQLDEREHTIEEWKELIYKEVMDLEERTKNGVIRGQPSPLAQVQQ

JNK1 [7] = biological target: T5, JNK1; test: 33PanQinase enzyme assay, JNK1; assay type: biochemical; design: purchased ProQinase GmbH, Freiburg, Germany (33PanQinase Assay Service); details: ratio IC50(JNK1)/IC50(MKK4)
Procedure, shortened: as §2
Target sequence in this assay (P45983 whole entry): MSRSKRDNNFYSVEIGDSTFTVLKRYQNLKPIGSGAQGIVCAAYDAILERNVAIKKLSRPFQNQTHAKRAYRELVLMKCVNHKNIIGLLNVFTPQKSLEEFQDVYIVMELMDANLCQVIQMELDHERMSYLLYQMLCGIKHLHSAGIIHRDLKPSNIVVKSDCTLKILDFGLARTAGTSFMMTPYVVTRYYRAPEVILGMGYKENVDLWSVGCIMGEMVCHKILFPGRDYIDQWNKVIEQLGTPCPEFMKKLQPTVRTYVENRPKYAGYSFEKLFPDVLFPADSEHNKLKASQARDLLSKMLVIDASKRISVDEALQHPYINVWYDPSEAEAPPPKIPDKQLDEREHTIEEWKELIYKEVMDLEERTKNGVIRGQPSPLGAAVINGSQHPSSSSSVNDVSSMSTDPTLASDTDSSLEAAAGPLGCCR

MKK7 [8] = biological target: T4, MKK7; test: 33PanQinase enzyme assay, MKK7; assay type: biochemical; design: purchased ProQinase GmbH, Freiburg, Germany (33PanQinase Assay Service); details: ratio IC50(MKK7)/IC50(MKK4)
Procedure, shortened: as §2

T2 sequence (P15056 whole entry, species assumed): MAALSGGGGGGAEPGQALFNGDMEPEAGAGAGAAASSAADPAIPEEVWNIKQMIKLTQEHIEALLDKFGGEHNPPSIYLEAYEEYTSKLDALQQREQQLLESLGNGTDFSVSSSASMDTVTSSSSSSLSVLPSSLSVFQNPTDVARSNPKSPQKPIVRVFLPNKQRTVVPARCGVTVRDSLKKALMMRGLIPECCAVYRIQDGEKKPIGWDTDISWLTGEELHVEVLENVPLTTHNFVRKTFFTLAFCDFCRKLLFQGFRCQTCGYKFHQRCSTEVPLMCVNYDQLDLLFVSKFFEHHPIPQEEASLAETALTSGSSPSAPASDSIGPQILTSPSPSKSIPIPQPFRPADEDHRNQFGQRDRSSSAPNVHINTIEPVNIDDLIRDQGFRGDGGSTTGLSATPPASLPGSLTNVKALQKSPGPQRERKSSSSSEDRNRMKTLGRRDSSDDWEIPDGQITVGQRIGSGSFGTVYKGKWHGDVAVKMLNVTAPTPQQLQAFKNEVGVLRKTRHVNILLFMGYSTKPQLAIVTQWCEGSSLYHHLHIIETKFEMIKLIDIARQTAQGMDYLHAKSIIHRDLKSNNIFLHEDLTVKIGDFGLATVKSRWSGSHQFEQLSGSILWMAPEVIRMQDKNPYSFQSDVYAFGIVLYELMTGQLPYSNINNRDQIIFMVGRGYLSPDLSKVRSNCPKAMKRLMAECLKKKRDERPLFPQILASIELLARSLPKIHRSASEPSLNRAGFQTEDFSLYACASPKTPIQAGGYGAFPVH

| Compound | MKK4 [% Ctrl @ 100 nM (MKK4 [1]) | selectivity based on % Ctrl @100 nM vs. Braf (BRaf [2]) | IC50 (MKK4 [3]) | selectivity based on % Ctrl @100 nM vs. MKK7 (MKK7 [5]) | selectivity based on % Ctrl @100 nM vs. JNK1 (JNK1 [6]) | Selectivity JNK1, IC50(off-target)/IC50(MKK4) (JNK1 [7]) | Selectivity IVIKK7, IC50(off-target)/IC50(MKK4) (MKK7 [8]) | Selectivity Braf, IC50(off-target)/IC50(MKK4) (BRaf [4]) |
| --- | --- | --- | --- | --- | --- | --- | --- | --- |
| O=C(c1cccc(NS(=O)(=O)Cc2ccccc2)c1F)c1c[nH]c2ncc(-c3ccc(Cl)cc3)cc12 [Example 124, N-(3-(5-(4-chlorophenyl)-1H-pyrrolo[2,3-b]pyridine-3-carbonyl)-2-fluorophenyl)-1-phenylmethanesulfonamide] | + (3 ≤ PoC < 30) | ++ (100 ≥ ratio > 10) | 100 to 1000 nM | ++ (100 ≥ ratio > 10) | ++ (100 ≥ ratio > 10) | ◯ (3 ≥ IC50(off-target)/IC50(MKK4)) | +++ (IC50(off-target)/IC50(MKK4) > 100) | +++ (IC50(off-target)/IC50(MKK4) > 100) |
| COc1ccc(-c2cnc3[nH]cc(C(=O)c4cccc(NS(=O)(=O)Cc5ccccc5)c4F)c3c2)c(Cl)c1 [Example 125, N-(3-(5-(2-chloro-4-methoxyphenyl)-1H-pyrrolo[2,3-b]pyridine-3-carbonyl)-2-fluorophenyl)-1-phenylmethanesulfonamide] | ++ (1 ≤ PoC < 3) | ++ (100 ≥ ratio > 10) | 100 to 1000 nM | ++ (100 ≥ ratio > 10) | ++ (100 ≥ ratio > 10) | + (10 ≥ IC50(off-target)/IC50(MKK4) > 3) | +++ (IC50(off-target)/IC50(MKK4) > 100) | +++ (IC50(off-target)/IC50(MKK4) > 100) |
| Cc1cc(F)ccc1-c1cnc2[nH]cc(C(=O)c3cccc(NS(=O)(=O)Cc4ccccc4)c3F)c2c1 [Example 126, N-(2-fluoro-3-(5-(4-fluoro-2-methylphenyl)-1H-pyrrolo[2,3-b]pyridine-3-carbonyl)phenyl)-1-phenylmethanesulfonamide] | + (3 ≤ PoC < 30) | ++ (100 ≥ ratio > 10) | 100 to 1000 nM | ++ (100 ≥ ratio > 10) | ++ (100 ≥ ratio > 10) | + (10 ≥ IC50(off-target)/IC50(MKK4) > 3) | +++ (IC50(off-target)/IC50(MKK4) > 100) | +++ (IC50(off-target)/IC50(MKK4) > 100) |
| O=C(c1cccc(NS(=O)(=O)Cc2ccccc2)c1F)c1c[nH]c2ncc(-c3cc4c(cc3Cl)OCO4)cc12 [Example 128, N-(3-(5-(6-chlorobenzo[d][1,3]dioxol-5-yl)-1H-pyrrolo[2,3-b]pyridine-3-carbonyl)-2-fluorophenyl)-1-phenylmethanesulfonamide] | ++ (1 ≤ PoC < 3) | ++ (100 ≥ ratio > 10) | 100 to 1000 nM | ++ (100 ≥ ratio > 10) | ++ (100 ≥ ratio > 10) | + (10 ≥ IC50(off-target)/IC50(MKK4) > 3) | +++ (IC50(off-target)/IC50(MKK4) > 100) | +++ (IC50(off-target)/IC50(MKK4) > 100) |
| O=C(c1cccc(NS(=O)(=O)Cc2ccccc2)c1F)c1c[nH]c2ncc(-c3ccncc3)cc12 [Example 129, N-(2-fluoro-3-(5-(pyridin-4-yl)-1H-pyrrolo[2,3-b]pyridine-3-carbonyl)phenyl)-1-phenylmethanesulfonamide] | +++ (PoC < 1) | +++ (Ratio > 100) | 100 to 1000 nM | +++ (Ratio > 100) | +++ (Ratio > 100) | + (10 ≥ IC50(off-target)/IC50(MKK4) > 3) | +++ (IC50(off-target)/IC50(MKK4) > 100) | ++ (100 ≥ IC50(off-target)/IC50(MKK4) > 10) |

More lines, main results first:

| MKK4 [% Ctrl @ 100 nM (MKK4 [1]) | selectivity based on % Ctrl @100 nM vs. Braf (BRaf [2]) | IC50 (MKK4 [3]) | selectivity based on % Ctrl @100 nM vs. MKK7 (MKK7 [5]) | selectivity based on % Ctrl @100 nM vs. JNK1 (JNK1 [6]) | Selectivity JNK1, IC50(off-target)/IC50(MKK4) (JNK1 [7]) | Selectivity IVIKK7, IC50(off-target)/IC50(MKK4) (MKK7 [8]) | Compound | Selectivity Braf, IC50(off-target)/IC50(MKK4) (BRaf [4]) |
| --- | --- | --- | --- | --- | --- | --- | --- | --- |
| +++ (PoC < 1) | +++ (Ratio > 100) | < 100 nM | +++ (Ratio > 100) | +++ (Ratio > 100) | +++ (IC50(off-target)/IC50(MKK4) > 100) | +++ (IC50(off-target)/IC50(MKK4) > 100) | O=C(c1ccc(F)c(NS(=O)(=O)CCC(F)(F)F)c1F)c1c[nH]c2ncc(-c3ccc(C(F)(F)F)nc3)cc12 [Example 148, N-(2,6-difluoro-3-(5-(6-(trifluoromethyl)pyridin-3-yl)-1H-pyrrolo[2,3-b]pyridine-3-carbonyl)phenyl)-3,3,3-trifluoropropane-1-sulfonamide] | ++ (100 ≥ IC50(off-target)/IC50(MKK4) > 10) |
| +++ (PoC < 1) | +++ (Ratio > 100) | < 100 nM | +++ (Ratio > 100) | +++ (Ratio > 100) | +++ (IC50(off-target)/IC50(MKK4) > 100) | +++ (IC50(off-target)/IC50(MKK4) > 100) | O=C(c1ccc(F)c(NS(=O)(=O)CCC(F)(F)F)c1F)c1c[nH]c2ncc(-c3cccnc3)cc12 [Example 156, N-(2,6-difluoro-3-(5-(pyridin-3-yl)-1H-pyrrolo[2,3-b]pyridine-3-carbonyl)phenyl)-3,3,3-trifluoropropane-1-sulfonamide] | ++ (100 ≥ IC50(off-target)/IC50(MKK4) > 10) |
| +++ (PoC < 1) | +++ (Ratio > 100) | < 100 nM | +++ (Ratio > 100) | +++ (Ratio > 100) | +++ (IC50(off-target)/IC50(MKK4) > 100) | +++ (IC50(off-target)/IC50(MKK4) > 100) | Cc1cc(F)ncc1-c1cnc2[nH]cc(C(=O)c3ccc(F)c(NS(=O)(=O)CCC(F)(F)F)c3F)c2c1 [Example 157, N-(2,6-difluoro-3-(5-(6-fluoro-4-methylpyridin-3-yl)-1H-pyrrolo[2,3-b]pyridine-3-carbonyl)phenyl)-3,3,3-trifluoropropane-1-sulfonamide] | +++ (IC50(off-target)/IC50(MKK4) > 100) |

From patent US11912701B2, “Protein kinase inhibitors for promoting liver regeneration or reducing or preventing hepatocyte death” (HEPAREGENIX GMBH, priority 2018, dated 2024)
